“Also recorded” adds a separate entry of the source. Like-named read-outs stand apart in the source and are kept apart here.
Key:
[1] = tested on: SW1736, 8505C, OCUT2, and KTC-2 cells; conditions: GC-1 concentrations higher than 10^-8M
[2] = tested on: SW1736 cells (SW-EV, SW-TRβ); experiment: Apoptosis assay (PARP1 and caspase 3 cleavage, immunoblot); format: cell-based, human; conditions: SW-TRβ
Text: Immunoblot Analysis. […] Proteins were resolved by polyacrylamide gel electrophoresis on 10% sodium dodecyl sulfate gels EC60752 (Life Technologies) and immobilized onto nitrocellulose membranes (GE Healthcare) by electroblot (Bio-Rad Laboratories). Specific proteins were detected by immunoblotting with the indicated antibodies (Table 4); immunoreactive proteins were detected by enhanced chemiluminescence (Thermo Scientific) on a ChemiDoc XRS+ (Bio-Rad Laboratories).
Apoptosis Assay. Cells were plated at a density of 50,000 cells/well and treated with vehicle (1 N NaOH) or 10^−8 M T3. After 5 days the cells were lysed for analysis by immunoblot. Poly (ADP-ribose) polymerase 1 (PARP1) and Caspase 3 cleavage were assessed to measure apoptotic signaling.
Immunoblot Analysis. […] Proteins were resolved by polyacrylamide gel electrophoresis on 10% sodium dodecyl sulfate gels EC60752 (Thermo Fisher Scientific) and immobilized onto nitrocellulose membranes (GE Healthcare, Chicago, Ill., USA) by electroblot (Bio-Rad Laboratories, Hercules, Calif., USA). Specific proteins were detected by immunoblotting with the indicated antibodies (Table 4); immunoreactive proteins were detected by enhanced chemiluminescence (Thermo Scientific) on a ChemiDoc XRS+ (Bio-Rad Laboratories).

MCF7 = experiment: Mammosphere growth, Luminal A breast cancer cells; format: cell-based
KTC-2 [3] = experiment: Xenograft model of anaplastic thyroid tumor; format: in vivo, SCID female mice; conditions: KTC-2 subcutaneous xenograft, GC-1 0.3 mg/Kg, Buparlisib 5 mg/Kg, approximately 6 week study
Description: Doses of Buparlisib tested in xenograft studies range from 5 mg/Kg to 20 mg/Kg.
Drugs were prepared at concentrations suitable for intraperitoneal (i.p.) injection of 5 μL/g body weight. […] Drug stocks were prepared by dissolving sobetirome and Sob-AM2 at 1 mg/mL in dimethyl sulfoxide (DMSO). […] Vehicles were prepared with 20% DMSO in saline.”
Buparlisib was used as a 5 mg/kg buparlisib treatment (recommended by Novartis). Buparlisib suspension was prepared in 0.5% methyl cellulose and 0.5% Tween20.
Tumors were established by subcutaneous injection of 5×10^6 tumor cells in 100 μL of phosphate-buffered saline into the flank region into SCID female mice. Thyroid cancer occurs in females ˜4× more often than in males. As funding is available; both males and females will be tested.
The study was approximately a 6 week study. Tumor mass was measured, and tumors and tissues were saved for IHC and RNAseq.

[4] = tested on: SW1736 cells (SW-EV, SW-TRβ); format: cell-based, human; conditions: for ATC cell death: GC-1 10^−8 M; for reduction in cell growth (AUC of growth curve): GC-1 10^−8M, 4 days
[5] = tested on: MDA-MB-468 cells (EV, TRβ); conditions: triple negative breast cancer cells with low TRβ expression
Description: Triple negative breast cancer were examined next. […] TNBC cancers and other advanced solid tumors have lower endogenous levels of expression of TRβ. […] Cell migration was measured by scratch assay (FIG. 28). […] Data are mean+/−SD; *indicates p<0.05 determined by t-test.

[6] = tested on: SW1736 cells (SW-EV, SW-TRβ); conditions: SW-TRβ1, GC-1 10^−8M
Description: (§3) Tumorsphere Assay. Cancer stem cell tumorspheres formed from ATC cells (thyrospheres) were used to assess self-renewal and sphere-forming efficiency. For generating thyrospheres, adherent monolayer cells were dissociated with Trypsin-EDTA, and single cells were moved to round-bottom ultra-low attachment 24-well plates at a density of 1000 cells/well (Corning). […] Where indicated, adherent cells were treated with 0.5 μM Buparlisib, 0.5 μM Alpelisib, 1 nM Palbociclib, 5 μM Sorafenib, or vehicle for 72 hours prior to thyrosphere-forming assay. […] Thyrospheres grew for seven days and were then counted with an inverted microscope.

[7] = tested on: SW1736, 8505C, OCUT2, and KTC-2 cells; experiment: Cell migration by scratch (wound healing) assay, inhibitors with or without GC-1; format: cell-based, human
Description: Migration Assay. Cell migration was determined by wound healing assay. Cells were plated and allowed to grow to 100% confluency. Four hours prior to scratching, cells were treated with […] Mitomycin C. A scratch was performed with a P1000 pipette tip and debris was washed away with PBS. […] Images were obtained at 0, 16, 24, 48, and 72 hours or until 100% wound closure, depending on the cell type. The wound closure was measured using the ImageJ macro “Wound Healing Tool” (https://github.com/MontpellierRessourcesImagerie/imagej_macros_and_scripts/wiki/Wound-Healing-Tool). Percent closure was calculated relative to the area of the initial scratch.

SW1736 = experiment: Cell growth with STAT1 activator 2-NP; format: cell-based, human; conditions: 0-50 μM 2-NP, 24 hours
Description: (§1) Growth Assays. Cell growth was measured either through live cell imaging or by cell counting at discrete points. Live cell imaging was used to assess the growth kinetics of SW-EV and SW-TRβ. To perform live cell imaging, 5000 cells were plated per well in 24 well plates. After 24 hours in phenol red free, charcoal stripped media, media was supplemented with either 10^−8 M T3 or equivolume vehicle (NaOH). Every two hours cells were imaged with a Lionheart automated microscope (BioTek) and quantified with Gen5 software (BioTek). The cells entered the log phase of growth at approximately 48 hours, and the portion of the curve following this point was used to calculate the doubling time of the cells. In order to measure growth manually, 25,000 cells were plated per well in a six well plate. Cells were grown in full thyroid media with the addition of 2-(1,8-Naphthyridin-2-yl)phenol (2-NP) (Abcam) or vehicle (DMSO). Every 24 hours cell counts were assessed by hemocytometer.
(§2) STAT1 has anti-proliferative activity, raising the question whether it can be exploited pharmacologically to reduce ATC growth. Baseline expression of key genes in the JAK1-STAT1 pathway and TR isoform levels (TRβ and TRα) in 3 additional anaplastic thyroid cancer cell lines are illustrated in FIG. 10C.

KTC-2 [8] = experiment: Cell growth with STAT1 activator 2-NP; format: cell-based; conditions: 0-50 μM 2-NP, 24 hours
Description: as §1, §2

OCUT-2 = experiment: Cell growth with STAT1 activator 2-NP; format: cell-based; conditions: 0-50 μM 2-NP, 24 hours
Description: as §1, §2

[9] = tested on: MDA-MB-468 cells (EV, TRβ); experiment: Mammosphere growth, triple negative breast cancer cells; format: cell-based
Text: Data are mean+/−SD; * indicates p<0.05 determined by t-test.

[10] = tested on: SW1736 cells (SW-EV, SW-TRβ); experiment: Buparlisib with or without GC-1, cell viability/growth, 24 hr; format: cell-based, human
Description: SW1736 cells transduced with lentiviral vector (EV) or lentiviral vector containing TRβ (TRβ) were treated with buparlisib (0 μM, 0.1 μM, 1 μM, or 10 μM) for 24 hours.

[11] = tested on: MDA-MB-468 cells (EV, TRβ); experiment: Relative cell growth by cell counting, triple negative breast cancer cells; format: cell-based; conditions: MDA-MB-468-TRβ, 10 nM GC-1, 8 days
Text: MDA-MB-468 cells were transduced with empty vector (EV) (FIGS. 29A, 29C) or thyroid hormone receptor beta (TRβ) (FIGS. 29B, 29D) and maintained in complete media. […] Data are mean+/−SD; * indicates p<0.05 determined by t-test.

[12] = tested on: SW1736, 8505C, OCUT2, and KTC-2 cells; experiment: Thyrosphere outgrowth, unmodified ATC cell lines; format: cell-based, human; conditions: inhibitor three days before plating, or 10 nM GC-1 for 7 days
Description: as §3

[13] = tested on: SW1736 cells (SW-EV, SW-TRβ); experiment: LY294002 inhibition of ATC cell migration; format: cell-based, human; conditions: presence of liganded TRβ (SW-TRβ vs SW-EV)
Description: Migration Assay. Cell migration was determined by wound healing assay. Cells were plated and allowed to grow to 100% confluency. Two hours prior to scratching, cells were treated with […] Mitomycin C. A scratch was performed with a P1000 pipette tip and debris was washed away with PBS. Migration media was supplemented with 10^−8 M T3. Images were obtained at 0, 24, 48, and 72 hours. Wound closure was measured using ImageJ macro “Wound Healing Tool” (http://dev.mri.cnrs.fr/projects/imagej-macros/wiki/Wound_Healing_Tool). Values were normalized so that the initial scratch was 0% closure.
TRβ also enhances PI3K inhibitor LY294002 inhibition of ATC cell growth and cell migration. […] LY294002 induces a 50% reduction in growth of normal-like thyroid cells NthyOri in which TRβ is expressed. […] Liganded TRβ suppresses ATC cell growth and migration as a tumor suppressor and critically enhances the effectiveness of a potential therapeutic agent.

NthyOri = experiment: LY294002 growth of normal-like thyroid cells; format: cell-based; conditions: normal-like thyroid cells NthyOri in which TRβ is expressed
PI3K = PI3K activity by pAkt and p mTOR immunoblot; format: cell-based, human; conditions: SW-TRβ vs SW-EV, LY294002 24 hr, T3 10^−8 M
Description: Immunoblot Analysis. Proteins were isolated from whole cells in lysis buffer (20 mM Tris-HCl [pH 8], 137 mM NaCl, 10% glycerol, 1% Triton X-100, and 2 mM EDTA) containing Protease Inhibitor Cocktail 78410 (Thermo Scientific). Proteins were resolved by polyacrylamide gel electrophoresis on 10% sodium dodecyl sulfate gels EC60752 (Life Technologies) and immobilized onto nitrocellulose membranes (GE Healthcare) by electroblot (Bio-Rad Laboratories). Specific proteins were detected by immunoblotting with the indicated antibodies (Table 4); immunoreactive proteins were detected by enhanced chemiluminescence (Thermo Scientific) on a ChemiDoc XRS+ (Bio-Rad Laboratories).

[14] = tested on: SW1736 cells (SW-EV, SW-TRβ); experiment: LY294002 inhibition of ATC cell growth; format: cell-based; conditions: Homo sapiens

Compound: Cc1cc(OCC(=O)O)cc(C)c1Cc1ccc(O)c(C(C)C)c1 [GC-1, 2-[4-[(4-hydroxy-3-propan-2-ylphenyl)methyl]-3,5-dimethylphenoxy]acetic acid]
- cell toxicity [1]: cause cell toxicity
- cleaved PARP and cleaved caspase 3 ([2]; GC-1, 5 days): significantly increased the presence of cleaved PARP and cleaved caspase 3
- apoptosis (cleaved PARP and caspase) ([2]; five days): induces apoptosis
- mammosphere formation (MCF7; MCF7, 10 nM GC-1 alone): could reduce mammosphere formation
- metastases (KTC-2 [3]): no visually detectable metastases
- tumor vascularization (KTC-2 [3]): minimal vascularization
- ATC cell death ([4]; SW1736 with endogenous TRβ (EV)): induces ATC cell death
- reduction in cell growth (AUC of growth curve) ([4]; SW-EV): 50%
- ATC cell death ([4]; SW-TRβ (lentiviral transduction)): amplified with higher levels of TRβ
- reduction in cell growth (AUC of growth curve) ([4]; SW-TRβ): 75%
- cell migration [5]: able to slow migration
- reduction in thyrosphere formation [6]: greater than 80%
- wound closure, agent alone ([7]; GC-1 10^−8M or inhibitor alone): able to prevent wound closure of all tumor cell lines with similar success as each inhibitor alone

Compound: CC/C(=C(\c1ccccc1)c1ccc(OCCN(C)C)cc1)c1ccccc1 [tamoxifen]
- effect of inhibitor in the presence of GC-1 (MCF7; MCF7, 10 nM GC-1, 5 days): enhanced the effect

Compound: Oc1ccccc1-c1ccc2cccnc2n1 [2-NP, 2-(1,8-naphthyridin-2-yl)phenol]
- reduction in cell growth (SW1736): recapitulates the effect of T3-TRβ; also recorded: most responsive
- reduction in cell growth (KTC-2 [8]): recapitulates the effect of T3-TRβ
- reduction in cell growth (OCUT-2): recapitulates the effect of T3-TRβ

Compound: Nc1cc(C(F)(F)F)c(-c2cc(N3CCOCC3)nc(N3CCOCC3)n2)cn1 [Buparlisib, 5-(2,6-dimorpholin-4-ylpyrimidin-4-yl)-4-(trifluoromethyl)pyridin-2-amine]
- mammosphere growth, Buparlisib in the presence of GC-1 ([9]; 10 nM GC-1, 5 days): increases the efficacy of Buparlisib to reduced mammosphere growth
- reduction of effective Buparlisib in the presence of GC-1 ([9]; mammospheres from MDA-MB-468-TRβ cells): 50%
- toxicity to cells ([10]; 10 μM): toxic
- cell viability ([10]; SW-EV, buparlisib alone 0-10 μM): concentration dependent decrease in cell viability
- sensitivity of cell growth to buparlisib ([10]; SW-TRβ plus GC-1 10^−8M): increase the sensitivity to buparlisib at 0.1 and 1 μM
- EC50, cell viability ([10]; SW-TRβ vs SW-EV): significantly reduced EC50
- metastases (KTC-2 [3]): detectable metastases to the heart
- tumor growth (KTC-2 [3]): smaller non-nodular growth
- cell growth, combination with GC-1 [11]: synergistic effect to reduce cell growth
- wound closure, inhibitor combined with GC-1 ([7]; KTC-2 cells, GC-1 10^−8M plus 0.5 μM Buparlisib): exception

Compound: CNC(=O)c1cc(Oc2ccc(NC(=O)Nc3ccc(Cl)c(C(F)(F)F)c3)cc2)ccn1 [Sorafenib, 4-[4-[[4-chloro-3-(trifluoromethyl)phenyl]carbamoylamino]phenoxy]-N-methylpyridine-2-carboxamide]
- thyrosphere formation/outgrowth, agent alone [12]: most effective overall

Compound: CC(=O)c1c(C)c2cnc(Nc3ccc(N4CCNCC4)cn3)nc2n(C2CCCC2)c1=O [Palbociclib, 6-acetyl-8-cyclopentyl-5-methyl-2-[(5-piperazin-1-ylpyridin-2-yl)amino]pyrido[6,5-d]pyrimidin-7-one]
- cell growth, combination with GC-1 [11]: synergistic effect to reduce cell growth

Compound: O=c1cc(N2CCOCC2)oc2c(-c3ccccc3)cccc12 [LY294002, 2-(morpholin-4-yl)-8-phenyl-4H-chromen-4-one]
- inhibition of ATC cell migration [13]: enhances LY294002 inhibition of ATC cell migration
- reduction in growth (NthyOri): 50%
- pAkt vs total Akt and p mTOR vs total mTOR (PI3K): decreased pAkt compared with total Akt and decreased p mTOR compared with total mTOR
- EC50 ([14]; SW-1736, SW-EV (no TRβ re-expression), T3): 5.21 µM
- EC50 ([14]; SW-1736, SW-EV, unit inferred): 5.21 µM
- EC50 ([14]; SW-1736, SW-TRβ, liganded (T3)): 1.13 µM
- EC50 ([14]; SW-1736, SW-TRβ, liganded (T3), unit inferred): 1.13 µM

Reference: patent US20230255974A1, “USE OF THYROMIMETICS FOR THE TREATMENT OF CANCER” (THE UNIVERSITY OF VERMONT, priority 2020, published 2023)
